Data as given in ChEMBL document CHEMBL4725306, “Discovery of (3S,4S)-3-methyl-3-(4-fluorophenyl)-4-(4-(1,1,1,3,3,3-hexafluoro-2-hydroxyprop-2-yl)phenyl)pyrrolidines as novel RORγt inverse agonists” (Bioorg Med Chem Lett, 2020).

Legend:
[1] = molecular target: T1, Nuclear receptor subfamily 1 group I member 2 (Homo sapiens, UniProt O75469); experiment: Activation of PXR (unknown origin)
T1 sequence (O75469 whole entry): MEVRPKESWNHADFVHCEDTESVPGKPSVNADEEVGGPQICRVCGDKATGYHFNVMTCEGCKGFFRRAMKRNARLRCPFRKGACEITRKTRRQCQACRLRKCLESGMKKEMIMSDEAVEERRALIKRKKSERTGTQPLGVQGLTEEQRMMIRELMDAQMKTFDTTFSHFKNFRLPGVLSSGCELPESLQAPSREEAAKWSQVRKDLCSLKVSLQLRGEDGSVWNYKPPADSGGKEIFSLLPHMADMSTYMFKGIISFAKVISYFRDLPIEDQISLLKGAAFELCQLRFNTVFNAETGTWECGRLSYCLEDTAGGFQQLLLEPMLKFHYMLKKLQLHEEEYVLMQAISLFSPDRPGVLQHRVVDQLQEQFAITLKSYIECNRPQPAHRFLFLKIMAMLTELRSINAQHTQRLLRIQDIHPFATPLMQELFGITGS

[2] = molecular target: T2, PXR (Homo sapiens, UniProt O75469); experiment: (§1) Activation of PXR (unknown origin) relative to rifampicin; conditions: read-out: %max
T2 sequence (O75469 whole entry): T1 sequence (O75469 whole entry)

[3] = Metabolic stability in human liver microsomes assessed as parent compound remaining incubated for 10 mins; assay type: ADME, Microsome; conditions: read-out: Stabilty
[4] = Metabolic stability in mouse liver microsomes assessed as parent compound remaining incubated for 10 mins; assay type: ADME, Microsome; conditions: read-out: Stabilty
[5] = molecular target: T3, Nuclear receptor ROR-alpha (Homo sapiens, UniProt P35398); experiment: Inverse agonist activity at ROR-alpha (unknown origin) expressed in Jurkat cells by gal4 reporter assay; assay type: cell-based
T3 sequence (P35398 whole entry): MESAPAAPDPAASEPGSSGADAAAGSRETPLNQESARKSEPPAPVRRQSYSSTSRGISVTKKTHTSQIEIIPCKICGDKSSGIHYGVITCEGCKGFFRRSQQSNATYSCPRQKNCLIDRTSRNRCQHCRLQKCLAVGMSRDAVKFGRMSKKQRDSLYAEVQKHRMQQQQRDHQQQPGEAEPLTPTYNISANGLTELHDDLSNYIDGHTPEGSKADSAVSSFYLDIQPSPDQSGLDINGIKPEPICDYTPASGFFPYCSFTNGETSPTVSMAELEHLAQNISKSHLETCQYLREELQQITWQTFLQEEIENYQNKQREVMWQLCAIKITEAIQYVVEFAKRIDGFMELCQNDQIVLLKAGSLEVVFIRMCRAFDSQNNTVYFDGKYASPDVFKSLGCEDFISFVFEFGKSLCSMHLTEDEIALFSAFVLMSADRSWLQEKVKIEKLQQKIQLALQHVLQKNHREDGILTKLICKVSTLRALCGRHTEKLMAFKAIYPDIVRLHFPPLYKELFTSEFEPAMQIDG

[6] = molecular target: T4, Nuclear receptor ROR-beta (Homo sapiens, UniProt Q92753); experiment: Inverse agonist activity at ROR-beta (unknown origin) expressed in Jurkat cells by gal4 reporter assay; assay type: cell-based
T4 sequence (Q92753 whole entry): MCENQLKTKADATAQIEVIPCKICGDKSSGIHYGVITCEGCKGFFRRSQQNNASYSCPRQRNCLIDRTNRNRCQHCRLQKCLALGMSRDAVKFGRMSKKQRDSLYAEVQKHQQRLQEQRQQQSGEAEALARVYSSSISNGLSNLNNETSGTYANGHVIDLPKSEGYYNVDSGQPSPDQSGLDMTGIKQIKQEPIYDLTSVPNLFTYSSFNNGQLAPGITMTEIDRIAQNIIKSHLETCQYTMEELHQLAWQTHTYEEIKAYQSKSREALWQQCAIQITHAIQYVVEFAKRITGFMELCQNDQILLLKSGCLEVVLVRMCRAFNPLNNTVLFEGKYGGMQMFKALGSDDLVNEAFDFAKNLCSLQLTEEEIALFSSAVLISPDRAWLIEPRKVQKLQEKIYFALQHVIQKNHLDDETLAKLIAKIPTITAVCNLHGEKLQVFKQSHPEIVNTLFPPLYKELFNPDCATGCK

[7] = molecular target: T5, Nuclear receptor ROR-gamma (Homo sapiens, UniProt P51449); experiment: Inverse agonist activity at RORgammat (unknown origin) expressed in Jurkat cells by reporter assay; assay type: cell-based
T5 sequence (P51449 whole entry): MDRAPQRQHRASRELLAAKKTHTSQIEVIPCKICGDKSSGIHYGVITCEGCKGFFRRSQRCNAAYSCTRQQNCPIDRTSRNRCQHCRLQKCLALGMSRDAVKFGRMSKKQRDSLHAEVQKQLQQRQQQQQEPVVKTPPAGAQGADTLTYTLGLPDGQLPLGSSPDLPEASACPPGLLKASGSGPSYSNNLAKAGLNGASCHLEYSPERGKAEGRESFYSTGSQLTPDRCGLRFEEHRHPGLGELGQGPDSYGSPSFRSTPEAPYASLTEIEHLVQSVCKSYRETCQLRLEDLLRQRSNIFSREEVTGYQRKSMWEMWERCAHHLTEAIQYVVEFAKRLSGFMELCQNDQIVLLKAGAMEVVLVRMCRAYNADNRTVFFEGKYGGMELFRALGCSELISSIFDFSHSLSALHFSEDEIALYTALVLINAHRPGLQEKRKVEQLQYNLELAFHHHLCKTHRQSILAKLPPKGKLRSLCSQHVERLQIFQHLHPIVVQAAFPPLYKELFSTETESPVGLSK

[8] = molecular target: T1, Nuclear receptor subfamily 1 group I member 2; experiment: as §1

EC50 [1] [nM]	Emax [2] [%]	remaining at 10 min [3] [%]	remaining at 10 min [4] [%]	EC50 [5] [nM]	EC50 [6] [nM]	EC50 [7] [nM]	%max [8] [%]	SMILES
1060	72	97	100	–	–	–	–	C[C@]1(c2ccc(F)cc2)CN(C(=O)C2CCN(C(N)=O)CC2)C[C@H]1c1ccc(C(O)(C(F)(F)F)C(F)(F)F)cc1
–	–	11	1	–	–	–	–	C[C@]1(c2ccc(F)cc2)CN(C(=O)NCc2ccncc2)C[C@H]1c1ccc(C(O)(C(F)(F)F)C(F)(F)F)cc1
–	–	74	79	–	–	–	–	CC(=O)N1CCC(C(=O)N2C[C@H](c3ccc(C(O)(C(F)(F)F)C(F)(F)F)cc3)[C@](C)(c3ccccc3)C2)CC1
1250	39	–	–	–	–	7910	–	C[C@]1(c2ccccc2)CNC[C@H]1c1ccc(C(O)(C(F)(F)F)C(F)(F)F)cc1 (racemic)
–	–	54	65	–	–	–	–	C[C@]1(c2ccc(F)cc2)CN(C(=O)NCc2ccc3c(c2)OCO3)C[C@H]1c1ccc(C(O)(C(F)(F)F)C(F)(F)F)cc1
151	78	90	80	–	–	–	–	C[C@]1(c2ccc(F)cc2)CN(C(=O)C2CCN(S(C)(=O)=O)CC2)C[C@H]1c1ccc(C(O)(C(F)(F)F)C(F)(F)F)cc1
559	–	73	67	–	–	–	98	C[C@]1(c2ccc(F)cc2)CN(C(=O)NCc2ccccc2)C[C@H]1c1ccc(C(O)(C(F)(F)F)C(F)(F)F)cc1
–	–	76	51	–	–	74	–	C[C@]1(c2ccc(F)cc2)CN(C(=O)NCc2ccc(C#N)cc2)C[C@H]1c1ccc(C(O)(C(F)(F)F)C(F)(F)F)cc1
276	96	–	–	–	–	–	–	C[C@]1(c2ccccc2)CN(CC(N)=O)C[C@H]1c1ccc(C(O)(C(F)(F)F)C(F)(F)F)cc1 (racemic)
60	84	–	–	–	–	–	–	C[C@@]1(c2ccc(C(O)(C(F)(F)F)C(F)(F)F)cc2)CN(C(=O)NCc2ccccc2)C[C@@H]1c1ccccc1 (racemic)
257	110	–	–	–	–	–	–	C[C@]1(c2ccccc2)CN(S(C)(=O)=O)C[C@H]1c1ccc(C(O)(C(F)(F)F)C(F)(F)F)cc1 (racemic)
740	93	–	–	–	–	–	–	C[C@]1(c2ccccc2)CN(C(=O)c2ccccc2)C[C@H]1c1ccc(C(O)(C(F)(F)F)C(F)(F)F)cc1 (racemic)
–	–	86	82	–	–	–	–	C[C@]1(c2ccc(F)cc2)CN(C(=O)C2CCN(C(=O)CO)CC2)C[C@H]1c1ccc(C(O)(C(F)(F)F)C(F)(F)F)cc1

Further lines, the compound ahead of its results:

SMILES	EC50 [1] [nM]	Emax [2] [%]	remaining at 10 min [3] [%]	remaining at 10 min [4] [%]	EC50 [5] [nM]	EC50 [6] [nM]	EC50 [7] [nM]	%max [8] [%]
C[C@]1(c2ccc(F)cc2)CN(C(=O)C2CCN(C(=O)C(N)=O)CC2)C[C@H]1c1ccc(C(O)(C(F)(F)F)C(F)(F)F)cc1	995	73	91	87	–	–	–	–
C[C@]1(c2ccc(F)cc2)CN(C(=O)NCc2ccccc2)C[C@H]1c1ccc(C(O)(C(F)(F)F)C(F)(F)F)cc1 (racemic)	474	79	–	–	–	–	–	–
CCNC(=O)N1C[C@@H](c2ccc(C(O)(C(F)(F)F)C(F)(F)F)cc2)[C@@](C)(c2ccccc2)C1 (racemic)	1780	73	–	–	–	–	–	–
C[C@]1(c2ccc(F)cc2)CN(C(=O)C2CCN(C(=O)CC#N)CC2)C[C@H]1c1ccc(C(O)(C(F)(F)F)C(F)(F)F)cc1	495	46	80	79	> 40000	> 40000	–	–
CC(=O)N1C[C@@H](c2ccc(C(O)(C(F)(F)F)C(F)(F)F)cc2)[C@@](C)(c2ccccc2)C1 (racemic)	361	110	–	–	–	–	–	–
CC(=O)N1CCC(C(=O)N2C[C@@H](c3ccc(C(O)(C(F)(F)F)C(F)(F)F)cc3)[C@@](C)(c3ccc(F)cc3)C2)CC1	1080	61	86	81	–	–	–	–
C[C@@]1(c2ccc(F)cc2)CN(C(=O)NCc2ccccc2)C[C@@H]1c1ccc(C(O)(C(F)(F)F)C(F)(F)F)cc1	472	80	58	17	–	–	–	–
COc1ccc(CNC(=O)N2C[C@@H](c3ccc(C(O)(C(F)(F)F)C(F)(F)F)cc3)[C@@](C)(c3ccc(F)cc3)C2)cc1	189	84	68	67	–	–	–	–
CC(=O)N1CCC(C(=O)N2C[C@@H](c3ccc(C(F)(C(F)(F)F)C(F)(F)F)cc3)[C@@](C)(c3ccc(F)cc3)C2)CC1	> 50000	15	–	–	–	–	–	–
COCC(=O)N1CCC(C(=O)N2C[C@@H](c3ccc(C(O)(C(F)(F)F)C(F)(F)F)cc3)[C@@](C)(c3ccc(F)cc3)C2)CC1	1550	52	54	49	–	–	–	–
CCS(=O)(=O)c1ccc(CNC(=O)N2C[C@@H](c3ccc(C(O)(C(F)(F)F)C(F)(F)F)cc3)[C@@](C)(c3ccc(F)cc3)C2)cc1	5	100	32	51	–	–	–	–
CC(=O)N1CCC(C(=O)N2C[C@@H](c3ccc(C(O)(C(F)(F)F)C(F)(F)F)cc3)[C@@](C)(c3ccccc3)C2)CC1	–	–	89	75	–	–	–	–
